Assay results reported in patent publication US7812045B2, “Antifungal triazole derivatives” (Daewoong Pharmaceutical Co., Ltd., priority 2005, dated 2010).
In brackets after ≈: the same amount, converted by molar mass.

Key:
[1] = tested on: Aspergillus flavus ATCC MYA-1004; assay: In vitro assay for antifungal activity (MIC90); format: cell-based; details: RPMI 1640, growth read after 48 hours, duplicate; for MIC90: read-out: MIC90 (concentration at which 90% of the fungi were inhibited compared to the negative control)
Protocol: (§1) Fungal strains to be tested were inoculated onto Sabouraud dextrose agar, YM agar, and potato dextrose agar and cultured at 35° C. for two to three days. Individual single colonies of the yeast fungi selected out of the cultured strains were suspended in 5 ml of 0.85% sterile saline, followed by correction to adjust the absorbance thereof at 530 nm to 0.108. The suspensions were diluted serially by 1:50 and then 1:20 in RPMI 1640 media to prepare liquid inocula ranging in cell count from 1.0×10^3 to 5.0×10^3 CFU/ml. As for filamentous fungi, their spores were suspended in 0.85% sterile saline and the suspensions were corrected with sterile saline to show optical transmittance at 530 nm of 80 to 82%. A dilution of 1:50 was made with RPMI 1640 media to prepare liquid inocula having cell counts from […] to 5×10^4 CFU/ml.
(§2) Antifungal samples were prepared by diluting the compounds of the present inventions in RPMI 1640 media to serial concentrations from 0.0625 to 32 μg/ml. As a vehicle, DMSO was contained in a final concentration of 1% (V/V) in the antifungal samples. 0.1 ml of each of the dilutions in series was added to equal volume of each of the fungal inocula.

[2] = tested on: Aspergillus fumigatus ATCC MYA-1163; assay: In vitro assay for antifungal activity (MIC90); format: cell-based; details: RPMI 1640, growth read after 48 hours, duplicate; for MIC90: read-out: MIC90 (concentration at which 90% of the fungi were inhibited compared to the negative control)
Protocol: as §1, §2

[3] = tested on: Aspergillus niger ATCC 9142; assay: In vitro assay for antifungal activity (MIC90); format: cell-based; details: duplicate; for MIC90 (concentration at which 90% of the fungi were inhibited compared to the negative control): RPMI 1640, growth read after 48 hours; for MIC90: ATCC9142, RPMI 1640, growth read after 48 hours, read-out: MIC90 (concentration at which 90% of the fungi were inhibited compared to the negative control)
Protocol: as §1, §2

[4] = tested on: Aspergillus terreus ATCC 28301; assay: In vitro assay for antifungal activity (MIC90); format: cell-based; details: duplicate; for MIC90 (concentration at which 90% of the fungi were inhibited compared to the negative control): RPMI 1640, growth read after 48 hours; for MIC90: ATCC28301, RPMI 1640, growth read after 48 hours, read-out: MIC90 (concentration at which 90% of the fungi were inhibited compared to the negative control)
Protocol: as §1, §2

[5] = tested on: Candida albicans ATCC 32033; assay: In vitro assay for antifungal activity (MIC90); format: cell-based; details: duplicate; for MIC90 (concentration at which 90% of the fungi were inhibited compared to the negative control): RPMI 1640, growth read after 24 hours; for MIC90: ATCC32033, RPMI 1640, growth read after 24 hours, read-out: MIC90 (concentration at which 90% of the fungi were inhibited compared to the negative control)
Protocol: as §1, §2

[6] = tested on: Candida glabrata ATCC 34138; assay: In vitro assay for antifungal activity (MIC90); format: cell-based; details: duplicate; for MIC90 (concentration at which 90% of the fungi were inhibited compared to the negative control): RPMI 1640, growth read after 24 hours; for MIC90: Nakaseomyces glabratus, ATCC34138, RPMI 1640, growth read after 24 hours, read-out: MIC90 (concentration at which 90% of the fungi were inhibited compared to the negative control)
Protocol: as §1, §2

Candida krusei ATCC 6258 = assay: In vitro assay for antifungal activity (MIC90); format: cell-based; details: duplicate; for MIC90 (concentration at which 90% of the fungi were inhibited compared to the negative control): RPMI 1640, growth read after 24 hours; for MIC90: Pichia kudriavzevii, ATCC6258, RPMI 1640, growth read after 24 hours, read-out: MIC90 (concentration at which 90% of the fungi were inhibited compared to the negative control)
Protocol: as §1, §2

[7] = tested on: Cryptococcus neoformans ATCC 4065; assay: In vitro assay for antifungal activity (MIC90); format: cell-based; details: for MIC90 (concentration at which 90% of the fungi were inhibited compared to the negative control): RPMI 1640, duplicate; for MIC90: ATCC4065, RPMI 1640, duplicate, read-out: MIC90 (concentration at which 90% of the fungi were inhibited compared to the negative control)
Protocol: as §1, §2

[8] = tested on: Candida albicans (ATCC 36082); assay: In vivo assay for antifungal activity (survival of infected mice); details: ICR mice infected i.v. with Candida albicans ATCC 36082; 20 mg/kg orally once a day for seven days (day 0 to day 6); groups of 10
Protocol: Candida albicans (ATCC 36082) was grown in YM broth on a rotary shaker (200 rpm, 26° C.) for about 12 hours to a concentration of 2.5×10^7 CFU/ml and used to infect ICR mice at a dose of 0.2 ml/head via caudal veins. Suspensions or solutions of the azole compounds in a 25% beta-hydroxypropyl methylcellulose base were orally administered at a dose of 20 mg/kg to respective infected ICR mice in groups of 10, the condition and body weights of the mice were monitored, and autopsies were finally conducted. For a negative control, the vehicle alone was used while fluconazole was administered to a positive control. The mice were inoculated once with the fungal preparation on the day of commencement of the administration. The test materials of interest and the positive control material were orally administered to the inoculated mice once a day for seven days from day 0 to day 6, with the first oral administration made five hours after the fungal inoculation (day 0). The periods of time for which the infected mice lived were counted.
The number of mice which survived the fungal infection for 21 days following the inoculation was represented as % survival for each test group, and the results are given in Table 11, below. All members of the negative control were dead 8 days after the fungal infection, while all of the groups administered with Compound 50 were dead 18 days after the fungal infection.

Assay for acute toxicity = format: in vivo; details: mice; oral administration, to a dose of 1000 mg/kg; observed for two weeks; suspension in 25% beta-hydroxypropyl methylcellulose base or polyethylene glycol 400

MIC90 (concentration at which 90% of the fungi were inhibited compared to the negative control) [1] | MIC90 (concentration at which 90% of the fungi were inhibited compared to the negative control) [2] | MIC90 (concentration at which 90% of the fungi were inhibited compared to the negative control) [3] | MIC90 (concentration at which 90% of the fungi were inhibited compared to the negative control) [4] | MIC90 (concentration at which 90% of the fungi were inhibited compared to the negative control) [5] | MIC90 (concentration at which 90% of the fungi were inhibited compared to the negative control) [6] | MIC90 (concentration at which 90% of the fungi were inhibited compared to the negative control) (Candida krusei ATCC 6258) | MIC90 (concentration at which 90% of the fungi were inhibited compared to the negative control) [7] | SMILES | % Survival on Day 21 [8] | acute toxicity: toxic syndromes observed (Assay for acute toxicity) | MIC90 [1] | MIC90 [2] | MIC90 [3] | MIC90 [4] | MIC90 [5] | MIC90 [6] | MIC90 (Candida krusei ATCC 6258) | MIC90 [7]
2 µg/mL | 0.5 µg/mL | 2 µg/mL | 2 µg/mL | ≦0.015 μg/ml | 2 µg/mL | 1 µg/mL | 0.125 µg/mL | C[C@@H](n1cc2cc(F)ccc2n1)[C@](O)(Cn1cncn1)c1ccc(F)cc1F [Example 56] | – | – | – | – | – | – | – | – | – | –
1 µg/mL | 1 µg/mL | 4 µg/mL | 2 µg/mL | ≦0.015 μg/ml | 8 µg/mL | 0.5 µg/mL | 0.25 µg/mL | C[C@@H](n1ncc2cc(NCc3ccc(OC(F)(F)F)cc3)ccc21)[C@](O)(Cn1cncn1)c1ccc(F)cc1F [Example 247] | – | – | – | – | – | – | – | – | – | –
16 µg/mL | 16 µg/mL | >16 µg/mL | 16 µg/mL | ≦0.015 μg/ml | 8 µg/mL | 4 µg/mL | 0.25 µg/mL | CCc1c2cc(F)ccc2nn1[C@H](C)[C@](O)(Cn1cncn1)c1ccc(F)cc1F [Example 100] | – | – | – | – | – | – | – | – | – | –
– | – | – | – | – | – | – | – | OC(Cn1cncn1)(Cn1cncn1)c1ccc(F)cc1F [Fluconazole, fluconazole, reference compound] | 20% | – | > 128 µg/mL | > 128 µg/mL | > 128 µg/mL | > 128 µg/mL | 1 µg/mL (≈ 3.27 µM) | > 32 µg/mL | > 8 µg/mL | 8 µg/mL (≈ 26.1 µM)
0.5 µg/mL | 1 µg/mL | 4 µg/mL | 2 µg/mL | ≦0.015 μg/ml | 8 µg/mL | 0.5 µg/mL | 0.25 µg/mL | C[C@@H](n1ncc2cc(NCc3ccc(F)cc3F)ccc21)[C@](O)(Cn1cncn1)c1ccc(F)cc1F [Example 250] | – | – | – | – | – | – | – | – | – | –
8 µg/mL | 4 µg/mL | 8 µg/mL | 4 µg/mL | 0.031 µg/mL | 8 µg/mL | 8 µg/mL | 1 µg/mL | Cc1c2cc(F)ccc2nn1[C@H](C)[C@](O)(Cn1cncn1)c1ccc(F)cc1F [Example 72] | – | – | – | – | – | – | – | – | – | –
2 µg/mL | 8 µg/mL | 16 µg/mL | 4 µg/mL | ≦0.015 μg/ml | 8 µg/mL | 1 µg/mL | 0.5 µg/mL | C[C@@H](n1ncc2cc(NCC3CCCCC3)ccc21)[C@](O)(Cn1cncn1)c1ccc(F)cc1F [Example 309] | – | – | – | – | – | – | – | – | – | –
– | – | – | – | – | – | – | – | Cc1nn([C@H](C)[C@](O)(Cn2cncn2)c2ccc(F)cc2F)c2ccc([N+](=O)[O-])cc12 [Example 106, (2R,3R)-2-(2,4-Difluorophenyl)-3-(3-methyl-5-nitro-1H-indazol-1-yl)-1-(1H-1,2,4-triazol-1-yl)butan-2-ol] | – | – | 8 µg/mL (≈ 18.7 µM) | 8 µg/mL (≈ 18.7 µM) | 16 µg/mL (≈ 37.3 µM) | 4 µg/mL (≈ 9.34 µM) | 0.031 µg/mL (≈ 0.0724 µM) | 8 µg/mL (≈ 18.7 µM) | 4 µg/mL (≈ 9.34 µM) | 0.5 µg/mL (≈ 1.17 µM)
0.5 µg/mL | 0.5 µg/mL | 2 µg/mL | 1 µg/mL | ≦0.015 μg/ml | 8 µg/mL | 0.5 µg/mL | 0.25 µg/mL | C[C@@H](n1ncc2cc(NCc3ccc(F)cc3)ccc21)[C@](O)(Cn1cncn1)c1ccc(F)cc1F [Example 244] | – | – | – | – | – | – | – | – | – | –

SMILES | MIC90 (concentration at which 90% of the fungi were inhibited compared to the negative control) [1] | MIC90 (concentration at which 90% of the fungi were inhibited compared to the negative control) [2] | MIC90 (concentration at which 90% of the fungi were inhibited compared to the negative control) [3] | MIC90 (concentration at which 90% of the fungi were inhibited compared to the negative control) [4] | MIC90 (concentration at which 90% of the fungi were inhibited compared to the negative control) [5] | MIC90 (concentration at which 90% of the fungi were inhibited compared to the negative control) [6] | MIC90 (concentration at which 90% of the fungi were inhibited compared to the negative control) (Candida krusei ATCC 6258) | MIC90 (concentration at which 90% of the fungi were inhibited compared to the negative control) [7] | % Survival on Day 21 [8] | acute toxicity: toxic syndromes observed (Assay for acute toxicity) | MIC90 [1] | MIC90 [2] | MIC90 [3] | MIC90 [4] | MIC90 [5] | MIC90 [6] | MIC90 (Candida krusei ATCC 6258) | MIC90 [7]
C[C@@H](n1cc2cc(Br)ccc2n1)[C@](O)(Cn1cncn1)c1ccc(F)cc1F [Example 60] | 1 µg/mL | 0.5 µg/mL | 1 µg/mL | 1 µg/mL | ≦0.015 μg/ml | 2 µg/mL | 1 µg/mL | 1 µg/mL | 10% | no toxic syndromes | – | – | – | – | – | – | – | –
